Q: With `CC1=NN(c2ccccc2)C(=O)C1` as the compound, how does the solubility (mole fraction) (in 1,2-dichloroethane, 283.15 K) read?
A: 0.0262

Q: And the solubility (mole fraction) (in 1,2-dichloroethane, 288.15 K)?
A: 0.0304

Q: What about the solubility (mole fraction) (in 1,2-dichloroethane, 293.15 K) of the same compound?
A: 0.0358

Q: What about the solubility (mole fraction) (in 1,2-dichloroethane, 298.15 K) of the same compound?
A: 0.0417

Q: And the solubility (mole fraction) (in 1,2-dichloroethane, 303.15 K)?
A: 0.0496

Q: What about the solubility (mole fraction) (in 1,2-dichloroethane, 308.15 K) of the same compound?
A: 0.058

Q: And the solubility (mole fraction) (in 1,2-dichloroethane, 313.15 K)?
A: 0.0676

Q: And the solubility (mole fraction) (in 1,2-dichloroethane, 318.15 K)?
A: 0.0767

Q: And the solubility (mole fraction) (in 1,2-dichloroethane, 323.15 K)?
A: 0.089

Q: And the solubility (mole fraction) (in 2-butanone, 283.15 K)?
A: 0.02

Q: What about the solubility (mole fraction) (in 2-butanone, 288.15 K) of the same compound?
A: 0.024

Q: What about the solubility (mole fraction) (in 2-butanone, 293.15 K) of the same compound?
A: 0.0313

Q: What about the solubility (mole fraction) (in 2-butanone, 298.15 K) of the same compound?
A: 0.0372

Q: What about the solubility (mole fraction) (in 2-butanone, 303.15 K) of the same compound?
A: 0.0437

Q: And the solubility (mole fraction) (in 2-butanone, 308.15 K)?
A: 0.0557

Q: And the solubility (mole fraction) (in 2-butanone, 313.15 K)?
A: 0.0678

Q: And the solubility (mole fraction) (in 2-butanone, 318.15 K)?
A: 0.081

Q: What about the solubility (mole fraction) (in 2-butanone, 323.15 K) of the same compound?
A: 0.121

Q: What about the solubility (mole fraction) (in MIBK, 283.15 K) of the same compound?
A: 0.0107

Q: What about the solubility (mole fraction) (in MIBK, 288.15 K) of the same compound?
A: 0.0138

Q: And the solubility (mole fraction) (in MIBK, 293.15 K)?
A: 0.0198

Q: And the solubility (mole fraction) (in MIBK, 298.15 K)?
A: 0.0243

Q: And the solubility (mole fraction) (in MIBK, 303.15 K)?
A: 0.0311

Q: And the solubility (mole fraction) (in MIBK, 308.15 K)?
A: 0.0365

Q: And the solubility (mole fraction) (in MIBK, 313.15 K)?
A: 0.0414

Q: And the solubility (mole fraction) (in MIBK, 318.15 K)?
A: 0.0495

Q: And the solubility (mole fraction) (in MIBK, 323.15 K)?
A: 0.0609

Q: What about the solubility (mole fraction) (in dimethyl carbonate, 283.15 K) of the same compound?
A: 0.0118

Q: What about the solubility (mole fraction) (in dimethyl carbonate, 288.15 K) of the same compound?
A: 0.0138

Q: And the solubility (mole fraction) (in dimethyl carbonate, 293.15 K)?
A: 0.0166

Q: And the solubility (mole fraction) (in dimethyl carbonate, 298.15 K)?
A: 0.0201

Q: And the solubility (mole fraction) (in dimethyl carbonate, 303.15 K)?
A: 0.0257

Q: What about the solubility (mole fraction) (in dimethyl carbonate, 308.15 K) of the same compound?
A: 0.0316

Q: What about the solubility (mole fraction) (in dimethyl carbonate, 313.15 K) of the same compound?
A: 0.0384

Q: And the solubility (mole fraction) (in dimethyl carbonate, 318.15 K)?
A: 0.0458

Q: And the solubility (mole fraction) (in dimethyl carbonate, 323.15 K)?
A: 0.0573

Q: And the solubility (mole fraction) (in ethyl lactate, 283.15 K)?
A: 0.0293

Q: And the solubility (mole fraction) (in ethyl lactate, 288.15 K)?
A: 0.0319

Q: What about the solubility (mole fraction) (in ethyl lactate, 293.15 K) of the same compound?
A: 0.0352

Q: And the solubility (mole fraction) (in ethyl lactate, 298.15 K)?
A: 0.0392

Q: And the solubility (mole fraction) (in ethyl lactate, 303.15 K)?
A: 0.0424

Q: And the solubility (mole fraction) (in ethyl lactate, 308.15 K)?
A: 0.0486

Q: What about the solubility (mole fraction) (in ethyl lactate, 313.15 K) of the same compound?
A: 0.0531

Q: What about the solubility (mole fraction) (in ethyl lactate, 318.15 K) of the same compound?
A: 0.0594

Q: And the solubility (mole fraction) (in ethyl lactate, 323.15 K)?
A: 0.0735

Q: What about the solubility (mole fraction) (in isobutyl acetate, 288.15 K) of the same compound?
A: 0.0109

Q: And the solubility (mole fraction) (in isobutyl acetate, 293.15 K)?
A: 0.0123

Q: And the solubility (mole fraction) (in isobutyl acetate, 298.15 K)?
A: 0.0142

Q: And the solubility (mole fraction) (in isobutyl acetate, 303.15 K)?
A: 0.0162

Q: And the solubility (mole fraction) (in isobutyl acetate, 308.15 K)?
A: 0.0192

Q: And the solubility (mole fraction) (in isobutyl acetate, 313.15 K)?
A: 0.0229

Q: What about the solubility (mole fraction) (in isobutyl acetate, 318.15 K) of the same compound?
A: 0.0268

Q: And the solubility (mole fraction) (in isobutyl acetate, 323.15 K)?
A: 0.0309

Q: And the solubility (mole fraction) (in isobutyl acetate, 328.15 K)?
A: 0.0367

Q: What about the solubility (mole fraction) (in isopentanol, 283.15 K) of the same compound?
A: 0.0191

Q: What about the solubility (mole fraction) (in isopentanol, 288.15 K) of the same compound?
A: 0.021

Q: And the solubility (mole fraction) (in isopentanol, 293.15 K)?
A: 0.023

Q: And the solubility (mole fraction) (in isopentanol, 298.15 K)?
A: 0.0261

Q: What about the solubility (mole fraction) (in isopentanol, 303.15 K) of the same compound?
A: 0.0282

Q: What about the solubility (mole fraction) (in isopentanol, 308.15 K) of the same compound?
A: 0.0312

Q: What about the solubility (mole fraction) (in isopentanol, 313.15 K) of the same compound?
A: 0.0353

Q: What about the solubility (mole fraction) (in isopentanol, 318.15 K) of the same compound?
A: 0.0403

Q: And the solubility (mole fraction) (in isopentanol, 323.15 K)?
A: 0.0466

Q: And the solubility (mole fraction) (in isopropyl acetate, 283.15 K)?
A: 0.00972

Q: And the solubility (mole fraction) (in isopropyl acetate, 288.15 K)?
A: 0.0117

Q: What about the solubility (mole fraction) (in isopropyl acetate, 293.15 K) of the same compound?
A: 0.0141

Q: And the solubility (mole fraction) (in isopropyl acetate, 298.15 K)?
A: 0.0162

Q: And the solubility (mole fraction) (in isopropyl acetate, 303.15 K)?
A: 0.0187

Q: What about the solubility (mole fraction) (in isopropyl acetate, 308.15 K) of the same compound?
A: 0.0223

Q: What about the solubility (mole fraction) (in isopropyl acetate, 313.15 K) of the same compound?
A: 0.0265

Q: And the solubility (mole fraction) (in isopropyl acetate, 318.15 K)?
A: 0.032

Q: What about the solubility (mole fraction) (in isopropyl acetate, 323.15 K) of the same compound?
A: 0.036

Q: And the solubility (mole fraction) (in methyl acetate, 283.15 K)?
A: 0.0161

Q: And the solubility (mole fraction) (in methyl acetate, 288.15 K)?
A: 0.0182

Q: What about the solubility (mole fraction) (in methyl acetate, 293.15 K) of the same compound?
A: 0.0201

Q: What about the solubility (mole fraction) (in methyl acetate, 298.15 K) of the same compound?
A: 0.0237

Q: What about the solubility (mole fraction) (in methyl acetate, 303.15 K) of the same compound?
A: 0.0266

Q: And the solubility (mole fraction) (in methyl acetate, 308.15 K)?
A: 0.0299

Q: And the solubility (mole fraction) (in methyl acetate, 313.15 K)?
A: 0.0349

Q: What about the solubility (mole fraction) (in methyl acetate, 318.15 K) of the same compound?
A: 0.0422

Q: What about the solubility (mole fraction) (in methyl acetate, 323.15 K) of the same compound?
A: 0.0477

Q: And the solubility (mole fraction) (in n-butyl acetate, 283.15 K)?
A: 0.0124

Q: And the solubility (mole fraction) (in n-butyl acetate, 288.15 K)?
A: 0.0142

Q: And the solubility (mole fraction) (in n-butyl acetate, 293.15 K)?
A: 0.0164

Q: And the solubility (mole fraction) (in n-butyl acetate, 298.15 K)?
A: 0.0195

Q: And the solubility (mole fraction) (in n-butyl acetate, 303.15 K)?
A: 0.0227

Q: What about the solubility (mole fraction) (in n-butyl acetate, 308.15 K) of the same compound?
A: 0.0265

Q: And the solubility (mole fraction) (in n-butyl acetate, 313.15 K)?
A: 0.0305

Q: What about the solubility (mole fraction) (in n-butyl acetate, 318.15 K) of the same compound?
A: 0.037

Q: And the solubility (mole fraction) (in n-butyl acetate, 323.15 K)?
A: 0.0423

Q: And the solubility (mole fraction) (in n-hexane, 283.15 K)?
A: 0.000173

Q: What about the solubility (mole fraction) (in n-hexane, 288.15 K) of the same compound?
A: 0.000226

Q: What about the solubility (mole fraction) (in n-hexane, 293.15 K) of the same compound?
A: 0.000394

Q: What about the solubility (mole fraction) (in n-hexane, 298.15 K) of the same compound?
A: 0.00052

Q: What about the solubility (mole fraction) (in n-hexane, 303.15 K) of the same compound?
A: 0.000662

Q: What about the solubility (mole fraction) (in n-hexane, 308.15 K) of the same compound?
A: 0.000963

Q: And the solubility (mole fraction) (in n-hexane, 313.15 K)?
A: 0.00136

Q: What about the solubility (mole fraction) (in n-hexane, 318.15 K) of the same compound?
A: 0.00172

Q: And the solubility (mole fraction) (in n-hexane, 323.15 K)?
A: 0.00211

Q: And the solubility (mole fraction) (in n-propyl acetate, 283.15 K)?
A: 0.0142

Q: And the solubility (mole fraction) (in n-propyl acetate, 288.15 K)?
A: 0.0169

Q: What about the solubility (mole fraction) (in n-propyl acetate, 293.15 K) of the same compound?
A: 0.0197

Q: And the solubility (mole fraction) (in n-propyl acetate, 298.15 K)?
A: 0.0228

Q: What about the solubility (mole fraction) (in n-propyl acetate, 303.15 K) of the same compound?
A: 0.0276

Q: What about the solubility (mole fraction) (in n-propyl acetate, 308.15 K) of the same compound?
A: 0.0318

Q: What about the solubility (mole fraction) (in n-propyl acetate, 313.15 K) of the same compound?
A: 0.0384

Q: And the solubility (mole fraction) (in n-propyl acetate, 318.15 K)?
A: 0.0451

Q: And the solubility (mole fraction) (in n-propyl acetate, 323.15 K)?
A: 0.0551
